{
  "source": "patent US7915050B2",
  "about": "“Regulatory genes for plant differentiation and growth, and use of the same” (National University Corporation Nagoya University, priority 2005, dated 2011)",
  "key": {"[1]": {"tested_on": "GA-deficient Arabidopsis mutant ga1-3 seeds", "assay": "Germination of GA-deficient ga1-3 seeds", "format": "in vivo", "experimental": "The germination of GA-deficient gal-3 seeds in a medium containing 16,17-dihydro-GA4 was tested, according to the method of Yamaguchi et al. (Plant Cell, 10, 2115-2126, […]). Approximately 70 to 80 seeds were used per each dish. Three independent measurements were carried, and the standard deviation (SD) was determined from these measurements. The seeds were assessed for germination at 23° C. on day 4, after cold treatment at 4° C. for 3 days. GA4 was used as a reference."}, "[2]": {"molecular_target": "T1, AtGID1a (Arabidopsis thaliana, UniProt Q9MAA7)", "T1 construct": "made in house; host or cells: E. coli", "T1 sequence (Q9MAA7 1-345)": "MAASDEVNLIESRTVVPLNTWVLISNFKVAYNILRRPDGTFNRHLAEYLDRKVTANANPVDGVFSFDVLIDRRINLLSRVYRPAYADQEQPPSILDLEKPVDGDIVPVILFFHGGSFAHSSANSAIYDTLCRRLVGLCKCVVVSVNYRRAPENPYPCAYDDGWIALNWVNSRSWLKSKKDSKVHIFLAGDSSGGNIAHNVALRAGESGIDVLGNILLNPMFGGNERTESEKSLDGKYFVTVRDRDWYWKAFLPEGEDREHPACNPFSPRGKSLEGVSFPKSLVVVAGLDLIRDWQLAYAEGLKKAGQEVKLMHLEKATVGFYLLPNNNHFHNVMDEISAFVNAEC", "assay": "Competitive ability of GA in AtGID1-GA binding (AtGID1a)", "experimental": "In the gibberellin-binding assay, [1,2,16,17-^3H4]16,17-dihydro-GA4 was used as a labeled GA4. In vitro GA-binding assays were carried out using previous methods with some modifications (Nakajima, M. et al., Biochem. Biophys. Res. Comm. 241, 782-786 (1997)). The purified recombinant GID1 protein (400 pmol) was dissolved in 300 μl of binding buffer [20 mM Tris-HCl (pH 7.6), 5 mM 2-mercaptoethanol, and 0.1 M NaCl], and incubated with 100 μl of ^3H4-16,17-dihydroGA4 (6 pmol) for two hours at 25° C., either in the absence of non-labeled GA4 (total binding) or in the presence of 833-fold excess non-labeled GA4 (total non-specific binding). Then, 0.1 ml of the reaction mixture was loaded onto a NAP-5 column (Amersham Biosciences, Piscataway, N.J.). The eluate of the binding buffer (0.6 ml) was discarded, the subsequent eluate (0.2 ml) was collected, and the radioactivity was measured. The specific binding activity, reflecting the number of displaceable GA binding sites, was calculated by subtracting the amount of nonspecific binding from the amount of total binding. The same as above can also be carried out for other GAs.\nSpecifically, the coding region of the AtGID1 gene was amplified by PCR using specific primers designed based on the full-length cDNA sequence of the AtGID1 gene and having appropriate restriction sites at each end. After confirmation by sequence analysis, each cDNA fragment was ligated into pET32a vector (Novagen/Merck Biosciences, Madison, Wis., USA) or pGEX-4T-2 vector (Amersham Biosciences, Piscataway, N.J., USA; currently, a part of GE Healthcare). The production of recombinant proteins was confirmed by SDS-PAGE; vector cassettes were used as negative controls. GA binding assays were carried out similarly as described above using [1,2,16,17-^3H4]-16,17-dihydro-GA4 (4.55 TBq/mmol), which was custom-made by DuPont/NEN (Boston, Mass., USA). Non-labeled GA4 (1.25 mM) was used to measure non-specific binding. Saturation experiments for the kinetic analysis were carried out using ten concentrations of 16,17-dihydro-GA4 within the range of 25 to 1,500 nM. Competition assays were performed using [1,2,16,17-^3H4]-16,17-dihydro-GA4 at 15 nM and five concentrations of the non-labeled competitor. Recombinant RGA and GAI proteins were prepared using pET32a by a previously described method.\nThe ligand selectivity of each AtGID1 was examined by observing the competitive inhibition, by the addition of GA to the assay mixtures, of the binding between the recombinant proteins and tritiated 16,17-dihydro-GA4 (Table 2). The ligand selectivity was evaluated using the concentration of GA that inhibits 50% of the tracer (15 nM) binding (IC50 value)."}},
  "data": [
    {"smiles": "CC1C[C@]23C[C@H]1CCC2[C@]12CC[C@H](O)[C@](C)(C(=O)O1)[C@H]2[C@@H]3C(=O)O", "note": "(stereo partly drawn) [H2-GA4, 16,17-dihydro-GA4]", "values": [
      {"measurement": "physiological effect on germination relative to GA4", "setting": "[1]", "result": "about 1/10"},
      {"measurement": "relative value, taking the value for GA4 as 100", "setting": "[2]", "result": "(8) %"},
      {"measurement": "IC50", "setting": "[2]; tracer 15 nM, mean of at least two measurements", "result": 4, "unit": "µM"}
    ]}
  ]
}
